Measured values as given in US9617283B2, “Bicyclic heterocycle compounds and their uses in therapy” (ASTEX THERAPEUTICS LIMITED, priority 2012, dated 2017).
Structures can show the parent of a compound that is named as a salt. Where two headings read alike, the source gives them in different places.

Test system: EVSA-T (human breast carcinoma)
Assay: Anti-proliferative activity, Alamar Blue assay, EVSA-T
Assay type: cell-based
[1] = Homo sapiens, EVSA-T, 72 h, EVSA-T cell line, 72 hours, Alamar Blue, read-out: EVSA-T prolif
[2] = Homo sapiens, EVSA-T, read-out: EC50 in EVSA-T cell line assays
[3] = EVSA-T cell line, 72 hours, Alamar Blue, dihydrochloride, read-out: EVSA-T prolif
[4] = Homo sapiens, EVSA-T cell line, 72 hours, Alamar Blue, read-out: EVSA-T prolif

Procedure: Anti-Proliferative Activity
The method is based on the ability of viable cells to reduce resazurin to its fluorescent product resorufin. For each proliferation assay cells are plated onto 96 well plates and allowed to recover for 16 hours prior to the addition of inhibitor compounds (in 0.1% DMSO v/v) for a further 72 hours. […] The anti-proliferative activities of compounds of the invention can be determined by measuring the ability of the compounds to inhibit growth in 3 cancer cell lines: • EVSA-T (human breast carcinoma) DSMZ cat. no.

EC50 [1]	EC50 [2]	EC50 [3]	Structure (SMILES)	EC50 [4]
1.5 nM	< 1000 nM	–	CCC1CC(=O)N(C[C@H]2CN[C@H](C)CN2CC(=O)N2CC(C)(C)c3ncc(Cc4ccc(F)cc4)cc32)C1 (single isomer, unassigned) [Example 82, (4R or 4S)-4-Ethyl-1-{[(2R,5R)-1-(2-{6-[(4-fluorophenyl)methyl]-3,3-dimethyl-1H,2H,3H-pyrrolo[3,2-b]pyridin-1-yl}-2-oxoethyl)-5-methylpiperazin-2-yl]methyl}pyrrolidin-2-one dihydrochloride]	–
1.1 nM	< 1000 nM	–	CCC1CC(=O)N(C[C@H]2CN[C@H](C)CN2CC(=O)N2CC(C)(C)c3cnc(Cc4ccc(F)cc4F)cc32)C1 (single isomer, unassigned) [Example 83, (4R or 4S)-1-{[(2R,5R)-1-(2-{6-[(2,4-Difluorophenyl)methyl]-3,3-dimethyl-1H,2H,3H-pyrrolo[3,2-c]pyridin-1-yl}-2-oxoethyl)-5-methylpiperazin-2-yl]methyl}-4-ethylpyrrolidin-2-one dihydrochloride]	–
–	–	1.7 nM	CCC1CC(=O)N(C[C@H]2CN[C@H](C)CN2CC(=O)N2CC(C)(C)c3ncc(Cc4ccc(F)cc4)cc32)C1 (single isomer, unassigned) [Example 86, (4R or 4S)-4-Ethyl-1-{[(2R,5R)-1-(2-{6-[(4-fluorophenyl)methyl]-3,3-dimethyl-1H,2H,3H-pyrrolo[3,2-b]pyridin-1-yl}-2-oxoethyl)-5-methylpiperazin-2-yl]methyl}pyrrolidin-2-one dihydrochloride]	–
–	–	1.2 nM	CCC1CC(=O)N(C[C@H]2CN[C@H](C)CN2CC(=O)N2CC(C)(C)c3cnc(Cc4ccc(F)cc4F)cc32)C1 (single isomer, unassigned) [Example 87, (4R or 4S)-1-{[(2R,5R)-1-(2-{6-[(2,4-Difluorophenyl)methyl]-3,3-dimethyl-1H,2H,3H-pyrrolo[3,2-c]pyridin-1-yl}-2-oxoethyl)-5-methylpiperazin-2-yl]methyl}-4-ethylpyrrolidin-2-one dihydrochloride]	–
–	< 1000 nM	14 nM	CCCC(F)(F)c1cc2c(cn1)C(C)(C)CN2C(=O)CN1C[C@@H](C)NC[C@@H]1CN1CC(CC)OCC1=O (single isomer, unassigned) [Example 88, 4-{[(2R,5R)-1-{2-[6-(1,1-Difluorobutyl)-3,3-dimethyl-1H,2H,3H-pyrrolo[3,2-c]pyridin-1-yl]-2-oxoethyl}-5-methylpiperazin-2-yl]methyl}-(R or S)-6-ethylmorpholin-3-one dihydrochloride]	–
–	–	6.5 nM	CCCC(F)(F)c1cc2c(cn1)C(C)(C)CN2C(=O)CN1C[C@@H](C)NC[C@@H]1CN1CC(CC)OCC1=O (single isomer, unassigned) [Example 89, 4-{[(2R,5R)-1-{2-[6-(1,1-Difluorobutyl)-3,3-dimethyl-1H,2H,3H-pyrrolo[3,2-c]pyridin-1-yl]-2-oxoethyl}-5-methylpiperazin-2-yl]methyl}-(R or S)-6-ethylmorpholin-3-one dihydrochloride]	–
6.5 nM	< 1000 nM	–	C[C@@H]1CN(CC(=O)N2CC(C)(C)c3ncc(Cc4ccc(F)cc4)cc32)[C@@H](CN2CCOCCC2=O)CN1 [Example 2, 4-{[(2R,5R)-1-(2-{6-[(4-Fluorophenyl)methyl]-3,3-dimethyl-1H,2H,3H-pyrrolo[3,2-b]pyridin-1-yl}-2-oxoethyl)-5-methylpiperazin-2-yl]methyl}-1,4-oxazepan-5-one hydrochloride]	–
7.1 nM	< 1000 nM	–	C[C@@H]1CN(CC(=O)N2CC(C)(C)c3ncc(Cc4ccc(F)cc4)cc32)[C@@H](CN2C(=O)[C@@H]3CC[C@H]2C3)CN1 [Example 8, (1S,4R)-2-{[(2R,5R)-1-(2-{6-[(4-Fluorophenyl)methyl]-3,3-dimethyl-1H,2H,3H-pyrrolo[3,2-b]pyridin-1-yl}-2-oxoethyl)-5-methylpiperazin-2-yl]methyl}-2-azabicyclo[2.2.1]heptan-3-one dihydrochloride]	–
5.9 nM	< 1000 nM	–	C[C@@H]1CN(CC(=O)N2CC(C)(C)c3ncc(Cc4ccc(F)cc4)cc32)[C@@H](CN2C[C@@H](C)OC2=O)CN1 [Example 9, (5R)-3-{[(2R,5R)-1-(2-{6-[(4-Fluorophenyl)methyl]-3,3-dimethyl-1H,2H,3H-pyrrolo[3,2-b]pyridin-1-yl}-2-oxoethyl)-5-methylpiperazin-2-yl]methyl}-5-methyl-1,3-oxazolidin-2-one]	–
–	–	–	C[C@@H]1CN(CC(=O)N2CC(C)(C)c3ncc(Cc4ccc(F)cc4)cc32)[C@@H](CN2CCC(F)(F)C2=O)CN1 [Example 11, 3,3-Difluoro-1-{[(2R,5R)-1-(2-{6-[(4-fluorophenyl)methyl]-3,3-dimethyl-1H,2H,3H-pyrrolo[3,2-b]pyridin-1-yl}-2-oxoethyl)-5-methylpiperazin-2-yl]methyl}pyrrolidin-2-one dihydrochloride]	4.3 nM
–	–	–	C[C@@H]1CN(CC(=O)N2CC(C)(C)c3ncc(Cc4ccc(F)cc4)cc32)[C@@H](CN2Cc3ncccc3C2=O)CN1 [Example 15, 6-{[(2R,5R)-1-(2-{6-[(4-Fluorophenyl)methyl]-3,3-dimethyl-1H,2H,3H-pyrrolo[3,2-b]pyridin-1-yl}-2-oxoethyl)-5-methylpiperazin-2-yl]methyl}-5H,6H,7H-pyrrolo[3,4-b]pyridin-5-onne dihydrochloride]	0.63 nM
6 nM	–	–	C[C@@H]1CC(=O)N(C[C@H]2CN[C@H](C)CN2CC(=O)N2CC(C)(C)c3ncc(Cc4ccc(F)cc4)cc32)C1 [Example 16, (4R)-1-{[(2R,5R)-1-(2-{6-[(4-Fluorophenyl)methyl]-3,3-dimethyl-1H,2H,3H-pyrrolo[3,2-b]pyridin-1-yl}-2-oxoethyl)-5-methylpiperazin-2-yl]methyl}-4-methylpyrrolidin-2-one dihydrochloride]	–
3.1 nM	< 1000 nM	–	C[C@H]1CC(=O)N(C[C@H]2CN[C@H](C)CN2CC(=O)N2CC(C)(C)c3ncc(Cc4ccc(F)cc4)cc32)C1 [Example 17, (4S)-1-{[(2R,5R)-1-(2-{6-[(4-Fluorophenyl)methyl]-3,3-dimethyl-1H,2H,3H-pyrrolo[3,2-b]pyridin-1-yl}-2-oxoethyl)-5-methylpiperazin-2-yl]methyl}-4-methylpyrrolidin-2-one dihydrochloride]	–
9.2 nM	< 1000 nM	–	C[C@@H]1CN(CC(=O)N2CC(C)(C)c3ncc(Cc4ccc(F)cc4)cc32)[C@@H](CN2CC(=O)NCC2=O)CN1 [Example 22, 1-{[(2R,5R)-1-(2-{6-[(4-Fluorophenyl)methyl]-3,3-dimethyl-1H,2H,3H-pyrrolo[3,2-b]pyridin-1-yl}-2-oxoethyl)-5-methylpiperazin-2-yl]methyl}piperazine-2,5-dione]	–
1.9 nM	< 1000 nM	–	C[C@@H]1CN(CC(=O)N2CC(C)(C)c3ncc(Cc4ccc(F)cc4)cc32)[C@@H](CN2C(=O)CO[C@@H](C)[C@H]2C)CN1 [Example 25, (5R,6S)-4-{[(2R,5R)-1-(2-{6-[(4-Fluorophenyl)methyl]-3,3-dimethyl-1H,2H,3H-pyrrolo[3,2-b]pyridin-1-yl}-2-oxoethyl)-5-methylpiperazin-2-yl]methyl}-5,6-dimethylmorpholin-3-one, dihydrochloride]	–
